Assay results: PMC9820167, “Design and Synthesis of Conformationally Flexible Scaffold as Bitopic Ligands for Potent D3-Selective Antagonists” (International Journal of Molecular Sciences, 2022)
Like-named read-outs stand apart in the source and are kept apart here.

Columns and labels:
Serotonin 5-HT1A = target: T1, Serotonin 5-HT1A (Homo sapiens, UniProt P08908); assay: PDSP binding screen
T1 sequence (P08908 1-422): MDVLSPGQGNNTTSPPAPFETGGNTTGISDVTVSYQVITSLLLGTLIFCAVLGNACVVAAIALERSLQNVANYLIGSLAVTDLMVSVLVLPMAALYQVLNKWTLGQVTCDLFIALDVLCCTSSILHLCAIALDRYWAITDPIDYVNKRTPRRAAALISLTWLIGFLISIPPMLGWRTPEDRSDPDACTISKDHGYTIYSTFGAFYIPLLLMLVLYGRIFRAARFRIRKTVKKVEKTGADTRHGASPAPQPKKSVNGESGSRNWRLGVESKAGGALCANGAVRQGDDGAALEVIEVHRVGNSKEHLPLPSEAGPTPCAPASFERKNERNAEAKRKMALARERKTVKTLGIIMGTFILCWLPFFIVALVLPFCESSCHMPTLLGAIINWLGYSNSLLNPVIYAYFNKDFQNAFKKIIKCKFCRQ

Serotonin 5-HT2A = Serotonin 5-HT2A (Homo sapiens, UniProt P28223); assay: PDSP binding screen
Sequence of Serotonin 5-HT2A (P28223 whole entry): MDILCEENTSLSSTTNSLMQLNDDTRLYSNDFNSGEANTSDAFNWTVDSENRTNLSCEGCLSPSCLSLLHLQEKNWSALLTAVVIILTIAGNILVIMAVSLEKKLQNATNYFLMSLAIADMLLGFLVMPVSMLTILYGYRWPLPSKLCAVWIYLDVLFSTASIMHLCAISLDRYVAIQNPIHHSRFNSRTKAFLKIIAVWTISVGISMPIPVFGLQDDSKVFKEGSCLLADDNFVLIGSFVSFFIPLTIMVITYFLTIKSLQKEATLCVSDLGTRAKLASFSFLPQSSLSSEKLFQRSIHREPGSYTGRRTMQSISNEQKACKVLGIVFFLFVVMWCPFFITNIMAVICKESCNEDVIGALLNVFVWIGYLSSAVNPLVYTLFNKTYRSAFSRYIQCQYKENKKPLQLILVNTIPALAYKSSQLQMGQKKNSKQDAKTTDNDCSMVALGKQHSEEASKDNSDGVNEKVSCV

Adrenergic alpha1B = target: T2, Adrenergic alpha1B (Homo sapiens, UniProt P35368); assay: PDSP binding screen; conditions: for inhibition at 10 µM: read-out: Ki (nM) or % inhibition at 10 µM: alpha1B
T2 sequence (P35368 1-520): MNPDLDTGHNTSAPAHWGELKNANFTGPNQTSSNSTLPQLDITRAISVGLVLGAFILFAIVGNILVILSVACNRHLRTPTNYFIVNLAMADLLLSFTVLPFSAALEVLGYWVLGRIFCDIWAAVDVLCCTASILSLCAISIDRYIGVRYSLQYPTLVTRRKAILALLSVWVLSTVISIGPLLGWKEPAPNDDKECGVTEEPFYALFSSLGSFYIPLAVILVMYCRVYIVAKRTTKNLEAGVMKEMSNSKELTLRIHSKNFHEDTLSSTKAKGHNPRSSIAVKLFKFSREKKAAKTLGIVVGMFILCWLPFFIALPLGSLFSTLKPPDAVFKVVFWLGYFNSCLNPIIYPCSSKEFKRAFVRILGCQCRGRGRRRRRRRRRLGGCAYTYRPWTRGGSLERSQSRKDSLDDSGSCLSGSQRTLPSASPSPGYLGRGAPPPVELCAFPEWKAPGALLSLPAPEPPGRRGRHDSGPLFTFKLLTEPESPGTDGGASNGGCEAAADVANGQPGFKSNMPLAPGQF

Adrenergic beta2 = Adrenergic beta2 (Homo sapiens, UniProt P07550); assay: PDSP binding screen; conditions: for inhibition at 10 µM: read-out: Ki (nM) or % inhibition at 10 µM: beta2
Sequence of Adrenergic beta2 (P07550 whole entry): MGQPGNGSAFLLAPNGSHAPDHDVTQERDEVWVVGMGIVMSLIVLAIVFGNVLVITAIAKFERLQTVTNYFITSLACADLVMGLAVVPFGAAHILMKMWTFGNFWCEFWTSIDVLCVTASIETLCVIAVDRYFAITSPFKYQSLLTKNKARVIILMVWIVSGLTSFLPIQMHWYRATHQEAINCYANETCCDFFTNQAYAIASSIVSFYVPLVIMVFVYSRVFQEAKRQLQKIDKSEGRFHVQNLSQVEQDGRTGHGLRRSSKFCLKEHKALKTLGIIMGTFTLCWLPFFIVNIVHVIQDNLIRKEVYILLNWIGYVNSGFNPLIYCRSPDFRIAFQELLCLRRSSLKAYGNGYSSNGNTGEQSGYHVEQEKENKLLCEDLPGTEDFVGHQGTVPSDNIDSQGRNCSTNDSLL

Dopamine D1 = Dopamine D1 (Homo sapiens, UniProt P21728); assay: PDSP binding screen; conditions: for inhibition at 10 µM: read-out: Ki (nM) or % inhibition at 10 µM: D1
Sequence of Dopamine D1 (P21728 whole entry): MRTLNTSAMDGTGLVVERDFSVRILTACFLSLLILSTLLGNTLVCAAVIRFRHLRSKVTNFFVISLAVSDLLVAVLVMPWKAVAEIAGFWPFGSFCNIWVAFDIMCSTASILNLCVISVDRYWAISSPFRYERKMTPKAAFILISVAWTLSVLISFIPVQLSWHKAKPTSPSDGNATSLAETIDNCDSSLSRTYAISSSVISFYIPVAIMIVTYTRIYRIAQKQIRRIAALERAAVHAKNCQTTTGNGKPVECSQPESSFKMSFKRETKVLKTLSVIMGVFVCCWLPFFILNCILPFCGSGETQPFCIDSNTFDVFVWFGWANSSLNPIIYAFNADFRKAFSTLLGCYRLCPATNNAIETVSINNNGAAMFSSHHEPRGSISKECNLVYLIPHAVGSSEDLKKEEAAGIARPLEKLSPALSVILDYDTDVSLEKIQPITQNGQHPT

Opioid KOR = Opioid KOR (Homo sapiens, UniProt P41145); assay: PDSP binding screen; conditions: for inhibition at 10 µM: read-out: Ki (nM) or % inhibition at 10 µM: KOR
Sequence of Opioid KOR (P41145 whole entry): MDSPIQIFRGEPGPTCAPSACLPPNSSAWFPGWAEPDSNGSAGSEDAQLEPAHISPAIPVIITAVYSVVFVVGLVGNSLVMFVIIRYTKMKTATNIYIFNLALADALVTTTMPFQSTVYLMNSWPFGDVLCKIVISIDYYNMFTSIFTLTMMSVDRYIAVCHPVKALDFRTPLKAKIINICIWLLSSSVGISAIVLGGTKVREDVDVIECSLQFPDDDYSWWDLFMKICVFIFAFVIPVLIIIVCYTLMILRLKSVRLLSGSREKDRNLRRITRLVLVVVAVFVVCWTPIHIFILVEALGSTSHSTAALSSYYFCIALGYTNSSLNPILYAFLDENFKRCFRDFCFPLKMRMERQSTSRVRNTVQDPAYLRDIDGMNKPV

Histamine H3 = Histamine H3 (Homo sapiens, UniProt Q9Y5N1); assay: PDSP binding screen; conditions: for inhibition at 10 µM: read-out: Ki (nM) or % inhibition at 10 µM: H3
Sequence of Histamine H3 (Q9Y5N1 whole entry): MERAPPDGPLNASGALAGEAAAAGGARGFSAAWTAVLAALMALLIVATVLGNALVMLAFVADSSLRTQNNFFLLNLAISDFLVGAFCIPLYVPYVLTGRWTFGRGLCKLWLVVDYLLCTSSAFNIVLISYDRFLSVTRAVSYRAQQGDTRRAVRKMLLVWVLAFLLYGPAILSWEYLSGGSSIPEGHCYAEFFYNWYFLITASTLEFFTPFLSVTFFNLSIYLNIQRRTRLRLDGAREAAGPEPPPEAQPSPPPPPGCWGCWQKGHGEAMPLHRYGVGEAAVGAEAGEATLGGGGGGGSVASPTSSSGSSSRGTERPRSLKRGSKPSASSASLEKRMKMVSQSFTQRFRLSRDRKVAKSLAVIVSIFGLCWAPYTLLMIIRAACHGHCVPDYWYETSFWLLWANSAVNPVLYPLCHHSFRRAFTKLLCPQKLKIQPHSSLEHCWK

Muscarinic M3 = Muscarinic M3 (Homo sapiens, UniProt P20309); assay: PDSP binding screen; conditions: for inhibition at 10 µM: read-out: Ki (nM) or % inhibition at 10 µM: M3
Sequence of Muscarinic M3 (P20309 whole entry): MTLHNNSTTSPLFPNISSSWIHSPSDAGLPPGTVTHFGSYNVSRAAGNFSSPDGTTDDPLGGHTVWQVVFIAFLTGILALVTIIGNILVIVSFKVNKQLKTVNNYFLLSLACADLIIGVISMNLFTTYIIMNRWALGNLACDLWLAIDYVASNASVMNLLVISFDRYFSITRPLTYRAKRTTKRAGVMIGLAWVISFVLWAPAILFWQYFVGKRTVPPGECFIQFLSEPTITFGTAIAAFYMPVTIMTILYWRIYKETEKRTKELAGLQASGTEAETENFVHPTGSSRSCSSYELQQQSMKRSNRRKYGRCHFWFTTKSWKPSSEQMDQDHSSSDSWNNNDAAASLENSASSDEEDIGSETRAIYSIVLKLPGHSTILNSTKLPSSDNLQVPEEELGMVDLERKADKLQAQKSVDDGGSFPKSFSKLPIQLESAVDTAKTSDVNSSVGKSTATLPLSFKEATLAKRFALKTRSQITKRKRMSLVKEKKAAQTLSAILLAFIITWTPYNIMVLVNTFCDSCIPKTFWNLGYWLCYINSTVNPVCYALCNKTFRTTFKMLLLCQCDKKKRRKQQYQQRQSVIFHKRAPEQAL

Muscarinic M4 = target: T3, Muscarinic M4 (Homo sapiens, UniProt P08173); assay: PDSP binding screen; conditions: for inhibition at 10 µM: read-out: Ki (nM) or % inhibition at 10 µM: M4
T3 sequence (P08173 1-479): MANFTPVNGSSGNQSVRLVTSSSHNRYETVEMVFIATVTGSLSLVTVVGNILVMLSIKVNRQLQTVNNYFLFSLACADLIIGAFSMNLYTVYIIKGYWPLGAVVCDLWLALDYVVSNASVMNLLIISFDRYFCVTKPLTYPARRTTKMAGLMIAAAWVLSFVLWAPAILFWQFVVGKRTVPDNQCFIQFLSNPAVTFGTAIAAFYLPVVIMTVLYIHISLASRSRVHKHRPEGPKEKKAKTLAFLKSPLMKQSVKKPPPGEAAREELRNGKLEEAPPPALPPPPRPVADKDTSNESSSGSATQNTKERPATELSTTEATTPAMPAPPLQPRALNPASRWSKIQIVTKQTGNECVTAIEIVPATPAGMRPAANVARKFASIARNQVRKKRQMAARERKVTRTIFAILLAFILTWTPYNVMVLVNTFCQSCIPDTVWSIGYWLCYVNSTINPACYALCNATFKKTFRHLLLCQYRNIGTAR

[1] = target: Norepinephrine transporter (NET) (Homo sapiens, UniProt P23975); assay: PDSP binding screen; conditions: for inhibition at 10 µM: read-out: Ki (nM) or % inhibition at 10 µM: Norepinephrine transporter (NET)
Sequence of Norepinephrine transporter (NET) (P23975 whole entry): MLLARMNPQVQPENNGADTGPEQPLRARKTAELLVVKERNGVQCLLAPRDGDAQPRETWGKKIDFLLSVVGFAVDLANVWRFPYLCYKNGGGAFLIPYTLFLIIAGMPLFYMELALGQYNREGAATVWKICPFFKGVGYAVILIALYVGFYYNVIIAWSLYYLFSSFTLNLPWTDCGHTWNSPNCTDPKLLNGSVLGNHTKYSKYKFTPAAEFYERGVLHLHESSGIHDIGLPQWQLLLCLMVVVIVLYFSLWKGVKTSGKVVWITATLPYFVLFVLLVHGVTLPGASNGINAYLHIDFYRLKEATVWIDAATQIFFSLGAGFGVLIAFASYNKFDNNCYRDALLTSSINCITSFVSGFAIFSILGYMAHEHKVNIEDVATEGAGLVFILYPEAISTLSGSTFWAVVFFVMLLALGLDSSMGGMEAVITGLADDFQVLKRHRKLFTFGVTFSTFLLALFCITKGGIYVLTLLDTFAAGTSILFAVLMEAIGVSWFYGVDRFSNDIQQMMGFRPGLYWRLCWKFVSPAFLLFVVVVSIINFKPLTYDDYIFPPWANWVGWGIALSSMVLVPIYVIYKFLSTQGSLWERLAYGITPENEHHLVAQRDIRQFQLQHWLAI

[2] = target: Benzodiazepine receptor (PBR) (Rattus norvegicus, UniProt P16257); assay: PDSP binding screen; conditions: for Ki (nM) or % inhibition at 10 µM: Benzodiazepine receptor (PBR): PDSP, HCl salts; for inhibition at 10 µM: read-out: Ki (nM) or % inhibition at 10 µM: Benzodiazepine receptor (PBR)
human D3 receptors = human D3 receptors (Homo sapiens, UniProt P35462); assay: β-arrestin recruitment assay (antagonist mode, competition with dopamine); assay type: cell-based; parameters: expressed in transfected cells; conditions: for Emax: percentage of the maximum inhibition of dopamine at EC80 concentration, read-out: Imax (% Control)
Sequence of human D3 receptors (P35462 whole entry): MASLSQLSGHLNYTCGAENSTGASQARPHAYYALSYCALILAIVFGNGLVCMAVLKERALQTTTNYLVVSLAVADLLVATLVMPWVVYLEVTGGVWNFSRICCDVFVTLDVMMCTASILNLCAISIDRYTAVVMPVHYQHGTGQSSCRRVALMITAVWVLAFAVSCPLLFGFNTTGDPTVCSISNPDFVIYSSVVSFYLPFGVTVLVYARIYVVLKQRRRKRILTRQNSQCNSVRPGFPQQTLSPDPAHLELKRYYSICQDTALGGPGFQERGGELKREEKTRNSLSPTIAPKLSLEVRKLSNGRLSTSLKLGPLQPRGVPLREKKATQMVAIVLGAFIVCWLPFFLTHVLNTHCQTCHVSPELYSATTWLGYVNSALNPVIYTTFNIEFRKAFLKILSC
Method: Two different assays were used to evaluate the properties of the analogs described above. The receptor binding affinity was measured by radioligand binding assays using [^125I]IABN with D2 or D3 receptors highly expressed HEK293 cells. The functional activity of the analogs was determined using a β-arrestin recruitment assay. The assay was initially conducted in agonist binding mode to confirm that they function as antagonists at the D3 receptor. Once this efficacy was confirmed, the assay was conducted in antagonist mode to determine the ability of the antagonist to compete with dopamine at the D3 receptor. The results of the antagonist mode assay are reported as IC50 values.
CHO-K1 cells which were overexpressed human D3 receptors were cultured in assaycomplete^TM cell culture kit 107. Cells were seeded at a density of 25,000 cells per well of 96-well plate, and incubated at 5% CO2, 37 °C. Two days later, test compounds were dissolved in DMSO, and diluted with 11-point series in phosphate-buffered saline (PBS). Prepared compounds were added to the cells, and it was incubated for 30 min at 5% CO2, 37 °C. Then, cells were treated with 30 nM (EC80) of dopamine, and the plate was incubated another 90 min. PathHunter^TM detection reagent was added to each well, and then plate was incubated for 80 min at RT in the dark. The chemiluminescent signal was measured by PerkinElmer Enspire plate reader (PerkinElmer, Boston, MA). Data were analyzed by Prism followed by non-linear regression.

[3] = potency for D3 receptors, CHO-K1 cells, vs 30 nM (EC80) dopamine, mean ± SD, three experiments, read-out: IC50

Row | Compound | Ki (Serotonin 5-HT1A) [nM] | Ki (Serotonin 5-HT2A) [nM] | Ki (Adrenergic alpha1B) [nM] | Ki (Adrenergic beta2) [nM] | Ki (Dopamine D1) [nM] | Ki (Opioid KOR) [nM] | inhibition at 10 µM (Histamine H3) [%] | inhibition at 10 µM (Muscarinic M3) [%] | inhibition at 10 µM (Muscarinic M4) [%] | Ki [1] [nM] | Ki [2] [nM] | Ki (nM) or % inhibition at 10 µM: Benzodiazepine receptor (PBR) [2] | Emax (human D3 receptors) [%] | IC50 (human D3 receptors; [3]) [nM] | inhibition at 10 µM (Adrenergic alpha1B) [%] | inhibition at 10 µM (Adrenergic beta2) [%] | inhibition at 10 µM (Dopamine D1) [%] | inhibition at 10 µM (Opioid KOR) [%] | Ki (Histamine H3) [µM] | Ki (Muscarinic M4) [nM] | also measured
1 | CCCN(CCCNC(=O)c1ccc(-c2cccs2)cc1)CCNC(=O)c1cc(Br)cc(OC)c1OC [20a, 5-Bromo-2,3-dimethoxy-N-(2-(propyl(3-(4-(thiophen-2-yl)benzamido)propyl)amino)ethyl)benzamide] | 194 | 617 | 1400 | 5830 | 4290 | 116 | < 50 | < 50 | < 50 | 3510 | 9 | relatively high affinity | 88.1 ± 20.4 | 26.5 ± 12.9 |  |  |  |  |  |  | 
2 | CCN(CCCNC(=O)c1ccsc1)CCNC(=O)c1cc(Br)cc(OC)c1OC [21i, N-(3-((2-(5-Bromo-2,3-dimethoxybenzamido)ethyl)(ethyl)amino)propyl)thiophen-e-3-carboxamide] | 245 | 1370 |  |  |  |  | < 50 | < 50 | < 50 | 3200 |  | relatively high affinity | 99.6 ± 20.7 | 2.7 ± 0.2 | < 50 | < 50 | < 50 | < 50 |  |  | inhibition at 10 µM [2]: < 50%
3 | CCN(CCCNC(=O)c1ccc(-c2cccs2)cc1)CCNC(=O)c1cc(Br)cc(OC)c1OC [9a, 5-Bromo-N-(2-(ethyl(3-(4-(thiophen-2-yl)benzamido)propyl)amino)ethyl)-2,3-dimethoxybenzamide] | 1740 | 222 | 2190 | 669 | 2400 | 107 |  |  |  | 772 | 1450 |  | 67.3 ± 18.9 |  |  |  |  |  | 5.58 | 1600 | Ki (Muscarinic M3): 4.75 µM; IC50 (human D3 receptors): 14 ± 7.4 nM
4 | CCN(CCCNC(=O)c1cc2ccccc2[nH]1)CCNC(=O)c1cc(Br)cc(OC)c1OC [21d, N-(3-((2-(5-Bromo-2,3-dimethoxybenzamido)ethyl)(ethyl)amino)propyl)-1H-indole-2-carboxamide] | 692 | 844 | > 10000 |  |  | 2330 |  | < 50 | < 50 | 842 | 1220 |  | 57.7 ± 26.9 | 9.3 ± 12 |  | < 50 | < 50 |  | > 10 |  | 
5 | CCN(CCCNC(=O)c1ccc(-c2ccncc2)cc1)CCNC(=O)c1cc(Br)cc(OC)c1OC [21c, 5-Bromo-N-(2-(ethyl(3-(4-(pyridin-4-yl)benzamido)propyl)amino)ethyl)-2,3-dimethoxybenzamide] | 509 | 727 |  |  |  | 642 |  | < 50 |  |  |  |  | 78.2 ± 18 | 1.3 ± 1 | < 50 | < 50 | < 50 |  | 4.73 | 930 | inhibition at 10 µM [1]: < 50%; inhibition at 10 µM [2]: < 50%
6 | CCN(CCCNC(=O)c1cc2ccccc2n1C)CCNC(=O)c1cc(Br)cc(OC)c1OC [21j, N-(3-((2-(5-Bromo-2,3-dimethoxybenzamido)ethyl)(ethyl)amino)propyl)-1-methyl-1H-indole-2-carboxamide] | 961 | 3140 |  | > 10000 |  |  | < 50 | < 50 | < 50 | 1100 | 8 |  | 81.5 ± 10.1 | 4.8 ± 0.8 | < 50 |  | < 50 | < 50 |  |  | 
7 | CCN(CCCNC(=O)c1ccc(-c2ccsc2)cc1)CCNC(=O)c1cc(Br)cc(OC)c1OC [21g, 5-Bromo-N-(2-(ethyl(3-(4-(thiophen-3-yl)benzamido)propyl)amino)ethyl)-2,3-dimethoxybenzamide] | 3310 | 276 | 1630 | 616 | 2010 | 170 |  | < 50 |  | 1940 | 6 | relatively high affinity | 50.1 ± 20.9 | 36.8 ± 35.7 |  |  |  |  | 4.81 | 1090 | 
8 | CCN(CCCNC(=O)c1cn2ccccc2n1)CCNC(=O)c1cc(Br)cc(OC)c1OC [21e, N-(3-((2-(5-Bromo-2,3-dimethoxybenzamido)ethyl)(ethyl)amino)propyl)imidazo[1,2-a]pyridine-2-carboxamide] | 575 | 1330 |  |  |  |  | < 50 |  | < 50 |  | 11 | relatively high affinity | 85.4 ± 6 | 4.3 ± 2.5 | < 50 | < 50 | < 50 | < 50 |  |  | Ki (Muscarinic M3): 1.55 µM; inhibition at 10 µM [1]: < 50%
